Experimental findings from BindingDB's records for doi:10.1016/j.bmcl.2004.06.037 (Alcon Research, 2004) are described below.

Chain of Prostaglandin F2-alpha receptor (Mus musculus) (P43117 whole entry, looked up): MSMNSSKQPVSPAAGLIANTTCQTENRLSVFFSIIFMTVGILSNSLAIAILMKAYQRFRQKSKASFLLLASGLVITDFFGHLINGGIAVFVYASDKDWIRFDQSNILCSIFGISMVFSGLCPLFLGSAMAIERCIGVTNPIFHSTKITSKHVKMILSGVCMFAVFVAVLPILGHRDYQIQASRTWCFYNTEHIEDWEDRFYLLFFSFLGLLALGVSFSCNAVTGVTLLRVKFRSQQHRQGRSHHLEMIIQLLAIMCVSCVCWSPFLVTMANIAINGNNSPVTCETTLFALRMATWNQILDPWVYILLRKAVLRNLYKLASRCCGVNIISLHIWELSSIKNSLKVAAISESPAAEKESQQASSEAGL

This test concerns the target Prostaglandin F2-alpha receptor (Mus musculus) (UniProt P43117). Kind of test: Efficacy for stimulation of prostanoid FP receptor-linked phosphoinositide turnover in Swiss 3T3 mouse fibroblast cells.
In general, EC50 refers to the concentration at which the effect is half-maximal. The low end stands for a more potent agent, the high end for a less potent agent. `CC(C)OC(=O)CCC/C=C/C[C@@H]1[C@@H](/C=C/C(O)COc2cccc(C(F)(F)F)c2)[C@H](O)C[C@@H]1O` (stereo partly drawn) [(E)-7-{(1R,2R,3R,5S)-3,5-Dihydroxy-2-[(E)-3-hydroxy-4-(3-trifluoromethyl-phenoxy)-but-1-enyl]-cyclopentyl}-hept-5-enoic acid isopropyl ester] gave an EC50 of 0.0027 µM.
As for `CCCCC[C@@H](O)/C=C/[C@H]1OC[C@H](O)[C@@H]1C/C=C\CCCC(=O)O` [(Z)-7-[(2R,3S,4R)-4-Hydroxy-2-((E)-(R)-3-hydroxy-oct-1-enyl)-tetrahydro-furan-3-yl]-hept-5-enoic acid], the figure is greater than 10 µM; as for `CCCCC[C@H](O)/C=C/[C@H]1OC[C@H](O)[C@@H]1C/C=C\CCCC(=O)O` [(Z)-7-[(2R,3S,4R)-4-Hydroxy-2-((E)-(S)-3-hydroxy-oct-1-enyl)-tetrahydro-furan-3-yl]-hept-5-enoic acid], 2.38 µM.
As for `O=C(O)CC/C=C\CCC[C@H]1[C@@H](O)CO[C@@H]1/C=C/[C@@H](O)COc1ccccc1` [(Z)-8-[(2R,3S,4R)-4-Hydroxy-2-((E)-(R)-3-hydroxy-4-phenoxy-but-1-enyl)-tetrahydro-furan-3-yl]-oct-4-enoic acid], the figure is 0.057 µM; as for `O=C(O)CCCC/C=C\C[C@H]1[C@@H](O)CO[C@@H]1/C=C/[C@@H](O)COc1ccccc1` [(Z)-8-[(2R,3S,4R)-4-Hydroxy-2-((E)-(R)-3-hydroxy-4-phenoxy-but-1-enyl)-tetrahydro-furan-3-yl]-oct-6-enoic acid], 0.293 µM; as for `O=C(O)CC/C=C\CCC[C@H]1[C@@H](O)CO[C@@H]1/C=C/[C@H](O)COc1ccccc1` [(Z)-8-[(2R,3S,4R)-4-Hydroxy-2-((E)-(S)-3-hydroxy-4-phenoxy-but-1-enyl)-tetrahydro-furan-3-yl]-oct-4-enoic acid], 0.252 µM.
As for `O=C(O)CCCC/C=C\C[C@H]1[C@@H](O)CO[C@@H]1/C=C/[C@H](O)COc1ccccc1` [(Z)-8-[(R)-4-Hydroxy-2-((1R,2S,4S)-3-hydroxy-4-phenoxy-but-1-enyl)-tetrahydro-furan-3-yl]-oct-6-enoic acid], the figure is 0.573 µM; as for `O=C(O)CC/C=C\CCC[C@H]1[C@@H](O)CO[C@@H]1/C=C/[C@@H](O)COc1cccc(Cl)c1` [(Z)-8-{(2R,3S,4R)-2-[(E)-(R)-4-(3-Chloro-phenoxy)-3-hydroxy-but-1-enyl]-4-hydroxy-tetrahydro-furan-3-yl}-oct-4-enoic acid], 0.023 µM; as for `O=C(O)CCCC/C=C\C[C@H]1[C@@H](O)CO[C@@H]1/C=C/[C@@H](O)COc1cccc(Cl)c1` [(Z)-8-{(2R,3S,4R)-2-[(E)-(R)-4-(3-Chloro-phenoxy)-3-hydroxy-but-1-enyl]-4-hydroxy-tetrahydro-furan-3-yl}-oct-6-enoic acid], 0.058 µM.
`O=C(O)CC/C=C\CCC[C@H]1[C@@H](O)CO[C@@H]1/C=C/[C@H](O)COc1cccc(Cl)c1` [(Z)-8-{(2R,3S,4R)-2-[(E)-(S)-4-(3-Chloro-phenoxy)-3-hydroxy-but-1-enyl]-4-hydroxy-tetrahydro-furan-3-yl}-oct-4-enoic acid] gave an EC50 of 0.249 µM.
As for `O=C(O)CCCC/C=C\C[C@H]1[C@@H](O)CO[C@@H]1/C=C/[C@H](O)COc1cccc(Cl)c1` [(Z)-8-{(2R,3S,4R)-2-[(E)-(S)-4-(3-Chloro-phenoxy)-3-hydroxy-but-1-enyl]-4-hydroxy-tetrahydro-furan-3-yl}-oct-6-enoic acid], the figure is 0.194 µM; as for `O=C(O)CC/C=C\CCC[C@H]1[C@@H](O)CO[C@@H]1/C=C/[C@@H](O)COc1cccc(C(F)(F)F)c1` [(Z)-8-{(2R,3S,4R)-4-Hydroxy-2-[(E)-(R)-3-hydroxy-4-(3-trifluoromethyl-phenoxy)-but-1-enyl]-tetrahydro-furan-3-yl}-oct-4-enoic acid], 0.067 µM.
`O=C(O)CCCC/C=C\C[C@H]1[C@@H](O)CO[C@@H]1/C=C/[C@@H](O)COc1cccc(C(F)(F)F)c1` [(Z)-8-{(2R,3S,4R)-4-Hydroxy-2-[(E)-(R)-3-hydroxy-4-(3-trifluoromethyl-phenoxy)-but-1-enyl]-tetrahydro-furan-3-yl}-oct-6-enoic acid] came in with an EC50 of 0.187 µM.
As for `O=C(O)CC/C=C\CCC[C@H]1[C@@H](O)CO[C@@H]1/C=C/[C@H](O)COc1cccc(C(F)(F)F)c1` [(Z)-8-{(2R,3S,4R)-4-Hydroxy-2-[(E)-(S)-3-hydroxy-4-(3-trifluoromethyl-phenoxy)-but-1-enyl]-tetrahydro-furan-3-yl}-oct-4-enoic acid], the figure is 0.781 µM; as for `O=C(O)CCCC/C=C\C[C@H]1[C@@H](O)CO[C@@H]1/C=C/[C@H](O)COc1cccc(C(F)(F)F)c1` [(Z)-8-{(2R,3S,4R)-4-Hydroxy-2-[(E)-(S)-3-hydroxy-4-(3-trifluoromethyl-phenoxy)-but-1-enyl]-tetrahydro-furan-3-yl}-oct-6-enoic acid], 0.899 µM.
For the molecule `CC(C)OC(=O)CCC/C=C/C[C@@H]1[C@@H](CC[C@@H](O)CCc2ccccc2)[C@H](O)C[C@@H]1O` [LATANOPROST (PHXA41)], the response was half-maximal at 0.0344 µM (EC50).
